Assay results published in patent US10092537B2, “Use for PAI-1 inhibitor” (RENASCIENCE CO., LTD., priority 2013, dated 2018).

Experiments:
[1] = test system: HER2-positive human ovarian cancer cell lines SKOV3; experiment: SKOV3 ovarian cancer subcutaneous tumor, Herceptin and compound c (Experimental Example 18); assay type: in vivo, BALB/c-nude mice; settings: Herceptin 5 mg/kg i.p. once + compound c 10 mg/kg/day oral (day 0-4, day 7-11); 45 days after administration
Experimental: HER2-positive human ovarian cancer cell lines SKOV3 (5×10^6) were subcutaneously inoculated into BALB/c-nude mice. For better cell engraftment, the mice were intraperitoneally administered 25 μl of anti-Asialo GM1 antibody (Wako Pure Chemical Industries, Ltd., Code No. 014-09801) 2 days and 1 day before the cancer cell inoculation. […] The group to which Herceptin and compound c were administered in combination is referred to as “compound c-combined group”, and the group to which Herceptin and physiological saline were administered in combination is referred to as “compound c-non-combined group.” The group to which only physiological saline was administered without Herceptin is referred to as “placebo group.”

human PAI-1 = human PAI-1 (Homo sapiens, UniProt P05121); experiment: Measurement of PAI-1 inhibitory activity of compound group 1 (t-PA, S-2288 chromogenic substrate); settings: read-out: PAI-1 activity %
Experimental: Subsequently, human-derived tissue plasminogen activator (t-PA) (manufactured by American Diagnostica, Inc. (USA); the same applies hereinafter) adjusted to 0.35 pmol/μL was added thereto, and the mixture was further incubated at 37° C. for 15 minutes.

[2] = test system: human hematopoietic stem cells; experiment: Transplantation of human CD34+ umbilical cord blood cells into irradiated severely immunocompromised mice (Experimental Example 2); assay type: in vivo; settings: 100 mg/kg oral, 6 doses, 7 days after cell transplantation
Experimental: Severely immunocompromised mice (recipient) were exposed to radiation (2Gy), and two days later, human CD34^+ cells isolated from human umbilical cord blood were transplanted into the mice. Concurrently with the transplantation, compound a was orally administered into the mice as a test compound (dosage: 100 mg/kg), and the compound was further administered for 5 consecutive days; i.e., 6 doses in total (see FIG. 2A). 2 days after the last administration (7 days after the cell transplantation), the bone-marrow cells were collected, and the abundance ratio of human hematopoietic cells was measured with a flow cytometric analyzer, whereas the cKitL concentration (μg/mL) and VEGF concentration (μg/mL) in the plasma were also measured.

[3] = Pharmacokinetics after oral gavage (Experimental Example 6); assay type: in vivo, male Wister rats; settings: male, Wistar, rat, 50 mg/kg oral gavage, plasma, reversed-phase HPLC
Experimental: Compound a (50 mg/kg) was administered to male Wister rats (180-200 g) via oral gavage. Before administration (0 h), and 1, 2, 6 and 24 hours after the administration, blood was collected, and the concentration of compound a in plasma of each […] was analyzed by reversed-phase HPLC. The time at which the maximum drug concentration in blood is observed (Tmax), the maximum drug concentration (Cmax), and half-life (T½) were determined.

hematopoietic stem cells [4] = experiment: Bone-marrow transplantation into wild-type mice and tPA-KO-mice (Experimental Example 8 (2)); assay type: in vivo; settings: 3 weeks after bone-marrow transplantation
Experimental: Compound a was administered to wild-type mice and tPA-KO-mice (6 mice for each) that underwent bone-marrow transplantation, and 3 weeks after, the mice were measured for the number of bone-marrow mononucleic cells (BM MNC), the frequency and absolute number of Lin-SLAM cells, and the frequency and absolute number of LSK-CD34 negative cells. Physiological saline was administered to a control group, and the same measurement was conducted.

hematopoietic stem cells [5] = experiment: Cell cycle (Ki-67, BrdU) and apoptosis (Annexin V) of bone-marrow cells 1 week after bone-marrow transplantation (Experimental Example 9); assay type: in vivo, mice
Experimental: In accordance with Experimental Example 7 (1), bone-marrow transplantation was conducted, and after the transplantation, physiological saline (control group), tPA (tPA-administered group), or compound a (compound a-administered group) was administered.
1 week after bone-marrow transplantation, the bone marrow was collected, and Ki-67 protein, which is a cell division marker, was immunostained with anti-Ki-67-FITC antibody (BD Bioscience) to analyze the cells in the cell-division cycle by FACSCalibur.
Subsequently, the number of Ki-67 positive cells in the cells of LSK fraction was examined to confirm that the proliferation of hematopoietic stem cells is promoted by compound a.
In addition, to more accurately detect the cells that moved to the S phase, 5-bromo-2-deoxyuridine (BrdU)-FITC (BD Pharmingen) was administered to the control group, tPA group, and compound a-administered group 1 week after bone-marrow transplantation, 3 hours before the collection of bone marrow. 6 mice were used for each group.
Because BrdU is a thymine derivative, BrdU, substituting for thymine, is incorporated into genomic DNA or the like during DNA replication. BrdU more specifically reflects the S phase than Ki-67 protein.
1 week after bone-marrow transplantation, bone marrow was collected from the control group, tPA group, and compound a-administered group (6 mice for each group), and Annexin V, which appears specifically in apoptosis, was detected with anti-Annexin V antibody immunostaining.

[6] = test system: long-term hematopoietic stem cells; experiment: Long-term hematopoietic stem cells: 15 weeks after transplantation, successive transplantation, limiting dilution (Experimental Example 10); assay type: in vivo, mice
Experimental: 15 weeks after bone-marrow transplantation, the control group, tPA group, and compound a-administered group (12 mice for each group) were measured for the number of bone-marrow mononucleic cells (BM MNC), frequency and absolute number of Lin-SLAM cells, and frequency of and absolute number LSK-CD34 negative cells.
15 weeks after the initial bone-marrow transplantation, bone marrow was collected from mice of the control group, tPA group, and compound a-administered group, and the collected bone marrow was transplanted into other mice (successive transplantation). In the successive transplantation, none of physiological saline, tPA, or compound a was administered.
12 weeks after successive transplantation, the chimerism of donor-derived bone marrow hematopoietic cells was measured.
To compare the frequency of long-term hematopoietic stem cell, donor-derived bone marrow to be transplanted first was diluted and transplanted, and the effect of PAI-1 inhibition was evaluated by a limiting dilution technique.
The collected bone-marrow mononucleic cells were diluted such that Ly5.1 positive bone-marrow mononucleic cell count gave 2×10E3, 6×10E3, 2×10E4, and 6×10E4, and then Ly5.1 positive bone-marrow mononucleic cells of each count were transplanted, together with 5×10E5 Ly5.2 positive competitor cells, into 20 mice. For transplantation, mice were divided into 2 groups, i.e., a compound a-administered group to which compound a was to be administered and a control group to which physiological saline was to be administered (8 groups in total), and the chimerism (the positive rate of Ly5.1 positive bone-marrow mononucleic cells) was measured 12 weeks after the transplantation.
Further, bone marrow was collected from the control groups and the compound a-administered groups to both of which Ly5.1 positive bone-marrow mononucleic cells of the above-described numbers were transplanted, and the collected bone marrow was successively transplanted into other mice. At the time successive transplantation was conducted, neither physiological saline nor the compound was administered. 12 weeks after the successive transplantation, bone marrow was collected from the mice, and Ly5.1 positive cells in the bone-marrow mononucleic cells were measured.
After successive transplantation, the frequency (CRU frequency) of hematopoietic stem cells having the hematopoietic regeneration capacity was calculated.

Chain of human PAI-1 (P05121 24-402): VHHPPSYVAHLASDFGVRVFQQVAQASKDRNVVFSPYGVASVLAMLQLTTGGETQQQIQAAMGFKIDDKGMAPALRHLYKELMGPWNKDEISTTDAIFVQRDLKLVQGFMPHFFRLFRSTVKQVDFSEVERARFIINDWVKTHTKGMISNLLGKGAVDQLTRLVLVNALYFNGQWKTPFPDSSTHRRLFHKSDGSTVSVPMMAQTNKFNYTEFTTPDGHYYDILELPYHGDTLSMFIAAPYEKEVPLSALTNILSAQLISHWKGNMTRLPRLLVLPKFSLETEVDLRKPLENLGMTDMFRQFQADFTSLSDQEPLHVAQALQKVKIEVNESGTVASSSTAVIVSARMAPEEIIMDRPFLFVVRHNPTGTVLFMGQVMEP

**Q.** With `O=C(Nc1ccc(Cl)cc1C(=O)O)c1cccc(-c2ccccc2)c1` [Example 4, 2-[(biphenyl-3-ylcarbonyl)amino]-5-chlorobenzoic acid] as the compound, how does the “tumor volume versus other groups” value [1] read?
**A.** significantly smaller

**Q.** And the activity at 20 µM (human PAI-1)?
**A.** 47.7%

**Q.** And the activity at 50 µM (human PAI-1)?
**A.** 7.6%

**Q.** Which “absolute number of human hematopoietic cells in the bone marrow, versus control group” value ([2]; control PBS) does the source give for `O=C(COCC(=O)N1CCN(C(c2ccccc2)c2ccccc2)CC1)Nc1ccc(Cl)cc1C(=O)[O-].[Na+]` [Example 30 (compound group 2), 2-(2-(2-(4-benzhydrylpiperazin-1-yl)-2-oxoethoxy)acetamido)-5-chlorobenzoic acid sodium salt] here?
**A.** 3 to 10 times higher

**Q.** And the “chimerism of human hematopoietic cells (CD45+) in the bone marrow, versus control group” value ([2]; control PBS)?
**A.** 2 to 9 times higher

**Q.** And the “VEGF in the plasma” value ([2]; versus control)?
**A.** increased

**Q.** And the “cKitL in the plasma” value ([2]; versus control)?
**A.** increased

**Q.** What about the “proportion of CD34+ cell (human HSC) contained in human hematopoietic cells” value ([2]; versus control) of the same compound?
**A.** increased

**Q.** What about the Cmax [3] of the same compound?
**A.** 35700 ng/mL

**Q.** What about the Tmax [3] of the same compound?
**A.** 2 h

**Q.** What about the half-life ([3]; read-out: T½ (converted)) of the same compound?
**A.** 2.5 h

**Q.** What about the bone-marrow mononucleic cells (hematopoietic stem cells [4]; tPA-KO-mice) of the same compound?
**A.** did not exhibit an increase

**Q.** And the “frequency or absolute number of Lin-SLAM cells and of LSK-CD34 negative cells” value (hematopoietic stem cells [4]; tPA-KO-mice)?
**A.** an increase was also not observed

**Q.** What about the bone-marrow mononucleic cells (hematopoietic stem cells [4]; wild-type mice) of the same compound?
**A.** increase

**Q.** What about the “proportion of cells that were induced apoptosis (Annexin V)” value (hematopoietic stem cells [5]; compared with control group) of the same compound?
**A.** decrease

**Q.** What about the “cells in the S phase (BrdU incorporated into LSK cells)” value (hematopoietic stem cells [5]; control group 18.1%) of the same compound?
**A.** 21.4%

**Q.** What about the “Ki-67 positive, cells classified into the LSK fraction taken as 100%” value (hematopoietic stem cells [5]; control group 43.3%) of the same compound?
**A.** 63.9%

**Q.** What about the “cell count of cells at the S-G2-M phase (Ki-67) in bone-marrow mononucleic cells” value (hematopoietic stem cells [5]; control group 44.2%) of the same compound?
**A.** 64.2%

**Q.** And the “cell count of cells at the G0/G1 phase (Ki-67) in bone-marrow mononucleic cells” value (hematopoietic stem cells [5]; control group 55.8%)?
**A.** 35.8%

**Q.** What about the “chimerism of donor-derived bone marrow hematopoietic cells” value ([6]; 12 weeks after successive transplantation, compound given only at first transplantation) of the same compound?
**A.** marked increase

**Q.** And the “number of bone-marrow mononucleic cells, frequency and absolute number of LSK-CD34 negative cells and of Lin-SLAM cells” value ([6]; 15 weeks after bone-marrow transplantation, among control, tPA and compound a groups)?
**A.** highest values

**Q.** And the “frequency of hematopoietic stem cells having the hematopoietic regeneration capacity, versus control” value ([6]; after successive transplantation)?
**A.** ≥ 6 time higher

**Q.** What about the “chimerism (positive rate of Ly5.1 positive bone-marrow mononucleic cells)” value ([6]; limiting dilution 2×10E3 to 6×10E4 cells, 12 weeks after transplantation) of the same compound?
**A.** significant increases
